Read-outs that look alike come from different tables or passages of the source.
What was measured:
C. elegans = C. elegans lifespan screening (survival) assay; format: in vivo, Caenorhabditis elegans; settings: for Mean LS ext., %: mean lifespan extension vs control, doses (uM); for Mean LS*: mean lifespan, dose uM: Panobinostat 1, Entinostat 10, Topotecan 5, PI-103 10, PHA-793887 10, Triptolide 10, KU-0063794 10, Trichostatin A 2, control 22.2 d
Excerpt: • 1. […] Then, with the help of linear gene-wise regression, we identified the transcriptomic aging signature, the list of genes that have statistically significant association with age rescaled by lifespan (the first list). • 3. Genes in the aging signature that have positive correlation with age rescaled by lifespan are over-expressed in late life of the animals, and if a gene's correlation is negative its gene expression decreases with age. • 4. […] The identified aging signature represents a vector of the aging-related changes of gene expression. […] This was done by projecting out all gene expression changes along the aging signature. • 6. After that, by gene-wise linear regression, we identified the list of genes that had statistically significant correlation with lifespan of long-lived strains. That list represents the PI3K-null signature. Genes in the PI3K-null signature that have positive correlation with lifespan are over-expressed in long-lived strains, and vise versa, genes with negative correlations have lower gene expression levels in long-lived mutants with respect to the control lines. • 7. […] Therefore, we would affect the aging process and either slow-down it or reverse it. • 8. We combined those lists, and identified the lists of their human orthologs. • 9. The inhibition of these genes or/and the proteins translated from those genes in humans will also produce life-extending effects. • 10. The predictive value of the aging signature was previously experimentally tested in paper. Along the lines of paper, to test the predictive value of the PI3K-null signature, we identified novel life-extending pharmacological interventions by comparing this signatures with gene expression profile changes in response to pharmacologic perturbations from the Connectivity Map (CMAP) database. Using the PI3K-null signature, we predicted perturbagen-compounds opposing the transcriptomic signature distinguishing long-lived C. elegans mutant strains with a slow aging rate from short-lived strains with a fast aging rate (see Table […] and T1b). To eliminate the confounding effect of different biological ages of nematodes in experimental cohorts, we applied the algorithm developed earlier. From the top of predicted compounds, we selected 8 compounds for a follow-up lifespan screening in C. elegans assay (see Figure F1, Table T2). • 11. We successfully tested the selected compounds in C. elegans survival assay (see Figure F1, Table T2). All 8 compounds produced a significant lifespan extension effect (according to the Log-rank Mantel-Cox method, all results are with p<0.05). Therefore, we experimentally validated the PI3K-null signature's pipeline for the identification of new life-extending compounds. • 12. […] CDK7, CHEK2, CAPN1, CTSB, HSP90AB1, HSP90AA1, HSPA5, NFKB1, NPC1, PABPC1, ABCB11, ABCB1, PLK1, PLK3, ADRA2A, ADRA2C, ADRA2B, TUBB6, SENP8, SENP6, SENP7, MMP14, MMP13, MMP8, MMP3, MMP1, MAPKAPK2, CTSL, CTSK, CTSS, ATXN2, TBXAS1, CREBBP, PDGFRA, FLT4, FLT1, KDR, PDGFRB, FLT3, KIT, CSF1R, IKBKB, IKBKE, PGGT1B, FAAH, GFER, MAPK14, MAPK12, PRKAA1, ABCG2, ADAM17, BACE2, BACE1, TUBB6, CA7, CA2, CA1, CA5A, CA12, CA9, CA4, CTSB, FEN1, HDAC1, HDAC2, HDAC3, CBX1, SLC6A4, SLC6A2, SLC6A3, PPARD, PPARG, PPARA, PSEN2, HTR7, ADRA1B, SMN2, FYN, SRC, LCK, LYN, TARDBP, CLK2, CLK4, USP2, GBA, RECQL, BLM, WRN, CDK2, PRKAG3, TFPI, LTA4H, DPP7, BACE2, BACE1, CAPN1, CTSB, IGF1R, INSR, EYA2, HSPA5, NFKB1, TCF7L2, TARDBP, BRD4. • 13. […] Lifespan assays were conducted at 20° C., as described previously. Briefly, synchronous cultures were initiated by lysis of gravid hermaphrodites in alkaline hypochlorite. Worms were selected at the L4 larval stage, placed 50 worms per plate, and transferred at 1- to 2-day intervals onto fresh plates during days 1-7, and at 2- to 3-day intervals after that. […]

mice given Doxorubicin = test: Example 33: doxorubicin-induced liver damage (plasma AST); settings: mouse, in vivo
Method: Doxorubicin if administered by mice reduces total body weight and induces expression of FOXO4 foci and IL-6 in the liver.
On the indicated time points, whole blood samples are collected in a Microvette with Lithium Heparin (Sarstedt) for plasma separation and spun for 10 min at 4.6×g. The (clear) supernatant is transferred into regular 1.5 ml tubes and spun again for 5 min at 4.6×g. The supernatants are transferred again into 1.5 ml tubes, snap frozen in liquid N2 and stored at −80° C. [AST] is measured using an AST Activity Assay Kit (Sigma). The samples are incubated with 100 μl reaction mix in a 96 well plate and place at 37° C. The absorbance at 450 nm is determined after 2 minutes for baseline analysis and after 40 minutes for a final analysis. [Urea] is measured using a QuantiChrom Urea Assay Kit (Gentaur). The samples are incubated in 200 μl reaction mix for 10 minutes at room temperature before absorbance is measured at 520 nm. [Creatinine] is measured using Creatinine Assay Kit (Sigma). Samples are incubated with 50 μl reaction mix at 37° C. for 60 minutes and the absorbance is measured at 570 nm. Ratios comparing plasma values after treatment compared to baseline are determined and plotted as % over baseline in scatter plots.

[1] = patient; cited from earlier work
CIA-induced DBA/1J mice = test: Example 30: collagen-induced arthritis (CIA); format: in vivo; settings: 0.2 mg/kg
D. melanogaster = settings: cited from earlier work
Caenorhabditis elegans = settings: not replicated in another study; cited from earlier work

Cc1[nH]c2ccccc2c1CCNCc1ccc(/C=C/C(=O)NO)cc1 [Compound 1, Panobinostat]
Mean LS ext., % (C. elegans): 8.1% | Mean LS* (C. elegans): 24 days

Nc1ccccc1NC(=O)c1ccc(CNC(=O)OCc2cccnc2)cc1 [Compound 2, Entinostat]
Mean LS ext., % (C. elegans): 8.6% | Mean LS* (C. elegans): 24.1 days

CC[C@@]1(O)C(=O)OCc2c1cc1n(c2=O)Cc2cc3c(CN(C)C)c(O)ccc3nc2-1 [Compound 3, Topotecan]
Mean LS ext., % (C. elegans): 9.7% | Mean LS* (C. elegans): 24.3 days

Oc1cccc(-c2nc(N3CCOCC3)c3oc4ncccc4c3n2)c1 [Compound 4, PI-103]
Mean LS ext., % (C. elegans): 8.6% | Mean LS* (C. elegans): 24.1 days

CC(C)CC(=O)Nc1[nH]nc2c1CN(C(=O)C1CCN(C)CC1)C2(C)C [Compound 5, PHA-793887]
Mean LS ext., % (C. elegans): 6.9% | Mean LS* (C. elegans): 23.7 days

CC(C)[C@]12O[C@H]1[C@@H]1O[C@]13[C@]1(O[C@H]1C[C@H]1C4=C(CC[C@@]13C)C(=O)OC4)[C@@H]2O [Compound 6, Triptolide]
Mean LS ext., % (C. elegans): 10% | Mean LS* (C. elegans): 24.4 days

COc1ccc(-c2ccc3c(N4CCOCC4)nc(N4C[C@@H](C)O[C@@H](C)C4)nc3n2)cc1CO [Compound 7, KU-0063794]
Mean LS ext., % (C. elegans): 10.6% | Mean LS* (C. elegans): 24.5 days

CC(/C=C/C(=O)NO)=C\[C@@H](C)C(=O)c1ccc(N(C)C)cc1 [Compound 8, Trichostatin A]
Mean LS ext., % (C. elegans): 10% | Mean LS* (C. elegans): 24.4 days

COc1cccc2c1C(=O)c1c(O)c3c(c(O)c1C2=O)C[C@@](O)(C(=O)CO)C[C@@H]3O[C@H]1C[C@H](N)[C@H](O)[C@H](C)O1 [Doxorubicin]
plasma levels of Aspartate Aminotransferase, AST (mice given Doxorubicin): strongly induce plasma levels of Aspartate Aminotransferase | total lifetime dose above which myocardial damage may lead to congestive heart failure [1]: exceeds 550 mg/m^2

CN(Cc1cnc2nc(N)nc(N)c2n1)c1ccc(C(=O)N[C@@H](CCC(=O)O)C(=O)O)cc1 [MTX, methotrexate]
development of arthritis (CIA-induced DBA/1J mice): strong inhibitory effect on the development of arthritis

O=C(c1ccc(F)cc1)C1CCN(CCn2c(=O)[nH]c3ccccc3c2=O)CC1 [ketanserin]
lifespan (D. melanogaster; fixed-diet conditions): did not affect lifespan | lifespan (D. melanogaster; flies allowed to chose nutrients): increased lifespan

CN1CCN2c3ccccc3Cc3ccccc3C2C1 (stereo not shown) [mianserin]
lifespan (prolongevity effect) (Caenorhabditis elegans): prolongevity effect

Source: patent publication US20250276066A1, “METHODS, COMPOSITIONS AND COMPOUNDS FOR TREATING AGE-RELATED DISEASES AND CONDITIONS” (GERO PTE. LTD., priority 2021, published 2025)
